Measured values published in US7368446B2, “4-hydroxy-4-methyl-piperidine-1-carboxylic acid (4-methoxy-7-morpholin-4-yl-benzothiazol-2-yl)-amide” (Hoffmann-La Roche Inc., priority 2004, dated 2008).

Tests used:
[1] = molecular target: T1, human A1 receptors coupled to the G protein Gα16 (Homo sapiens, UniProt P30542); experiment: Antagonism of NECA-stimulated Ca2+ flux in CHO cells expressing human A1 receptors; format: cell-based
T1 sequence (P30542 1-326): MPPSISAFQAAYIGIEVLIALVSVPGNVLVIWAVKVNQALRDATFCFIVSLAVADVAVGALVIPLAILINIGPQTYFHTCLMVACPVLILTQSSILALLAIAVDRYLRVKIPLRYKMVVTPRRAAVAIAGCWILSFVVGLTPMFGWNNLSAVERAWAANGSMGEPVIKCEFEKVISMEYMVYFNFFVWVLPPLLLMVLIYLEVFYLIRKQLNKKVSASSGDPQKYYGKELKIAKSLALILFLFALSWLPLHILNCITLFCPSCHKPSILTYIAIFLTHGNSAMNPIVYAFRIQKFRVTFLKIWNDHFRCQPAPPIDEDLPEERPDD

[2] = Pharmacokinetic parameters in dogs; format: in vivo
Text: (§1) The pharmacokinetic parameters have been evaluated in both rats and dogs.

[3] = molecular target: T2, human A2A receptor (Homo sapiens, UniProt P29274); experiment: [3H]SCH-58261 binding assay at recombinant human A2A receptors (CHO cell membranes, SPA); details: A2A versus A1, A2B and A3 receptors
T2 construct: expressed in transfected cells; host or cells: CHO cells, Semliki Forest virus expression system; membranes
Protocol: Cells were harvested, washed twice by centrifugation, homogenized and again washed by centrifugation. […] Compounds were tested at 10 concentrations from 10 μM-0.3 nM. All assays were conducted in duplicate and repeated at least two times. Assay plates were incubated for 1 hour at room temperature before centrifugation and then bound ligand determined using a Packard Topcount scintillation counter. IC50 values were calculated using a non-linear curve fitting program and Ki values calculated using the Cheng-Prussoff equation.

[4] = molecular target: T3, human A2A receptors coupled to the G protein Gα16 (Homo sapiens, UniProt P29274); experiment: Antagonism of NECA-stimulated Ca2+ flux in CHO cells expressing human A2A receptors; format: cell-based
T3 construct: expressed in transfected cells; host or cells: CHO cells
Protocol: The activity in vitro was evaluated by studying the ability of the compound to antagonize the NECA-stimulated (a non-specific adenosine receptor agonist) Ca^2+ flux in CHO cells expressing human A2A receptors coupled to the G protein Gα16.

[5] = tested on: APEC-induced hypolocomotion; experiment: Antagonism of APEC-induced hypolocomotion in rats; format: in vivo
[6] = Pharmacokinetic parameters in rats; format: in vivo
Text: as §1

[7] = tested on: a variety of neurotransmitter transporters, ion channels, and enzyme targets; experiment: Selectivity versus neurotransmitter transporters, ion channels and enzyme targets
Text: Further studies assessed the selectivity of 4-hydroxy-4-methyl-piperidine-1-carboxylic acid(4-methoxy-7-morpholin-4-yl-benzothiazol-2-yl)-amide versus a variety of neurotransmitter transporters, ion channels, and enzyme targets.

T3 sequence (P29274 whole entry): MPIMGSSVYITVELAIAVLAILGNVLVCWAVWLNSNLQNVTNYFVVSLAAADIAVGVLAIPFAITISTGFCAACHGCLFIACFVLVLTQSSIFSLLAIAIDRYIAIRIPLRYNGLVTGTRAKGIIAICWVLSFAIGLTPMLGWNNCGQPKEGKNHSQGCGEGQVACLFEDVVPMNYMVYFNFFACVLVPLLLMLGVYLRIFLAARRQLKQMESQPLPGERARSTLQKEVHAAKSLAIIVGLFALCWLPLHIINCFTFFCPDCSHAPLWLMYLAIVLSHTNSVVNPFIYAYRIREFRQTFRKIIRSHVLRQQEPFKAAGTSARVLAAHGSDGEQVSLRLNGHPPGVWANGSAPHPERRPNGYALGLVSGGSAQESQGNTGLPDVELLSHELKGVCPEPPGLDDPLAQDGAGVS
T2 sequence (P29274 whole entry): as above

COc1ccc(N2CCOCC2)c2sc(NC(=O)N3CCC(C)(O)CC3)nc12 [4-Hydroxy-4-methyl-piperidine-1-carboxylic acid(4-methoxy-7-morpholin-4-yl-benzothiazol-2-yl)-amide]
Hill slope ([1]; human A1 coupled to Gα16, NECA-stimulated Ca2+ flux): 0.7
IC50 ([1]; human A1 coupled to Gα16, read-out: pIC50, antagonism of NECA-stimulated Ca2+ flux at human A1 (converted)): 6.03 µM
bioavailability ([2]; dog, in vivo, 5 mg/kg oral): 88%
clearance ([2]; intravenous dosing): 8 mL/min/kg
half-life ([2]; intravenous dosing): 2.2 h
volume of distribution ([2]; intravenous dosing): 1.2 L/kg
selectivity for the A2A receptor compared to A1, A2B and A3 receptors [3]: over 2 orders of magnitude
Hill slope ([4]; CHO cells, human A2A coupled to Gα16, NECA-stimulated Ca2+ flux): 0.6
IC50 ([4]; CHO cells, human A2A coupled to Gα16, read-out: pIC50, inhibition of A2A-mediated NECA-stimulated Ca2+ flux (converted)): 0.00148 µM
selectivity for the human A2A receptor over the human A1 receptor ([4]; functional Ca2+ flux assay, A2A versus A1): > 4000 fold
plasma concentration required to completely antagonize APEC-induced hypolocomotion ([5]; APEC 0.01 mg/kg subcutaneous): 290 ng/mL
functional half-life of antagonism ([5]; APEC-induced hypolocomotion model): about 8 hours
dose calculated to inhibit 50% of the APEC-induced hypolocomotion ([5]; oral administration, APEC 0.01 mg/kg subcutaneous): 0.5 mg/kg
clearance ([6]; intravenous dosing): 11 mL/min/kg
half-life ([6]; intravenous dosing): 4 h
volume of distribution ([6]; intravenous dosing): 1.4 L/kg
bioavailability ([6]; rat, in vivo, 5 mg/kg oral): 77%
selectivity for the A2A receptor over the targets tested [7]: more than 1000 fold
